Measured values published in ChEMBL document CHEMBL3046843, “Synthesis and investigation of anti-inflammatory activity of novel nitric oxide donating hybrid drugs” (Med Chem Res, 2013).
Blank lines part the entries; values can stand above or below the compound they belong to.

Columns and labels:
Rattus norvegicus [1] = experiment: Anti-inflammatory activity in Rattus norvegicus (rat) assessed as inhibition of carrageenan-induced paw edema at 14 mg/kg, po administered at 1 hr prior to carrageenan-challenge measured after 4 hr relative to control; format: functional
Rattus norvegicus [2] = experiment: Anti-inflammatory activity in Rattus norvegicus (rat) assessed as inhibition of carrageenan-induced paw edema at 14 mg/kg, po administered at 1 hr prior to carrageenan-challenge measured after 2 hr relative to control; format: functional
Rattus norvegicus [3] = experiment: Ulcerogenic activity in fasted albino Rattus norvegicus (rat) assessed as stomach mucosal injury at 14 mg/kg, po administered QD for 3 days measured on day 4 by electron microscopic analysis; format: toxicity, organism-based; set-up: dose 14 mg/kg, route oral; details: in vivo, 72 h
Mus musculus [4] = experiment: Analgesic activity in Mus musculus (mouse) assessed as inhibition of acetic acid-induced writhing at 14 mg/kg, po measured after 25 min relative to control; format: functional
Rattus norvegicus [5] = experiment: Anti-inflammatory activity in Rattus norvegicus (rat) assessed as inhibition of carrageenan-induced paw edema at 14 mg/kg, po administered at 1 hr prior to carrageenan-challenge measured after 1 hr relative to control; format: functional
[6] = Induction of nitric oxide release in phosphate buffer at 10^-4 M after 1 hr at pH 7.4 by Griess method in presence of L-cysteine relative to control; format: physicochemical; details: pH 7.4, 1 h, 100 µM
Rattus norvegicus [7] = experiment: Anti-inflammatory activity in Rattus norvegicus (rat) assessed as inhibition of carrageenan-induced paw edema at 14 mg/kg, po administered at 1 hr prior to carrageenan-challenge measured after 3 hr relative to control; format: functional
Rattus norvegicus [8] = experiment: Ulcerogenic activity in fasted albino Rattus norvegicus (rat) at 14 mg/kg, po administered QD for 3 days measured on day 4; format: toxicity, organism-based; set-up: dose 14 mg/kg, route oral; details: in vivo, 72 h
Mus musculus [9] = experiment: Analgesic activity in Mus musculus (mouse) assessed as inhibition of acetic acid-induced writhing at 13 mg/kg, po measured after 25 min relative to control; format: functional
Rattus norvegicus [10] = experiment: Ulcerogenic activity in fasted albino Rattus norvegicus (rat) at 13 mg/kg, po administered QD for 3 days measured on day 4; format: toxicity, organism-based; set-up: dose 13 mg/kg, route oral; details: in vivo, 72 h
Rattus norvegicus [11] = experiment: Anti-inflammatory activity in Rattus norvegicus (rat) assessed as inhibition of carrageenan-induced paw edema at 13 mg/kg, po administered at 1 hr prior to carrageenan-challenge measured after 1 hr relative to control; format: functional
Rattus norvegicus [12] = experiment: Anti-inflammatory activity in Rattus norvegicus (rat) assessed as inhibition of carrageenan-induced paw edema at 13 mg/kg, po administered at 1 hr prior to carrageenan-challenge measured after 4 hr relative to control; format: functional
Rattus norvegicus [13] = experiment: Anti-inflammatory activity in Rattus norvegicus (rat) assessed as inhibition of carrageenan-induced paw edema at 13 mg/kg, po administered at 1 hr prior to carrageenan-challenge measured after 2 hr relative to control; format: functional
Rattus norvegicus [14] = experiment: Anti-inflammatory activity in Rattus norvegicus (rat) assessed as inhibition of carrageenan-induced paw edema at 13 mg/kg, po administered at 1 hr prior to carrageenan-challenge measured after 3 hr relative to control; format: functional
Rattus norvegicus [15] = experiment: Ulcerogenic activity in fasted albino Rattus norvegicus (rat) assessed as stomach mucosal injury at 13 mg/kg, po administered QD for 3 days measured on day 4 by electron microscopic analysis; format: toxicity, organism-based; set-up: dose 13 mg/kg, route oral; details: in vivo, 72 h
Rattus norvegicus [16] = experiment: Anti-inflammatory activity in Rattus norvegicus (rat) assessed as inhibition of carrageenan-induced paw edema at 10 mg/kg, po administered at 1 hr prior to carrageenan-challenge measured after 4 hr relative to control; format: functional
Mus musculus [17] = experiment: Analgesic activity in Mus musculus (mouse) assessed as inhibition of acetic acid-induced writhing at 10 mg/kg, po measured after 25 min relative to control; format: functional
Rattus norvegicus [18] = experiment: Anti-inflammatory activity in Rattus norvegicus (rat) assessed as inhibition of carrageenan-induced paw edema at 10 mg/kg, po administered at 1 hr prior to carrageenan-challenge measured after 2 hr relative to control; format: functional
Rattus norvegicus [19] = experiment: Anti-inflammatory activity in Rattus norvegicus (rat) assessed as inhibition of carrageenan-induced paw edema at 10 mg/kg, po administered at 1 hr prior to carrageenan-challenge measured after 1 hr relative to control; format: functional
Rattus norvegicus [20] = experiment: Ulcerogenic activity in fasted albino Rattus norvegicus (rat) at 10 mg/kg, po administered QD for 3 days measured on day 4; format: toxicity, organism-based; set-up: dose 10 mg/kg, route oral; details: in vivo, 72 h
Rattus norvegicus [21] = experiment: Anti-inflammatory activity in Rattus norvegicus (rat) assessed as inhibition of carrageenan-induced paw edema at 10 mg/kg, po administered at 1 hr prior to carrageenan-challenge measured after 3 hr relative to control; format: functional
Rattus norvegicus [22] = experiment: Anti-inflammatory activity in Rattus norvegicus (rat) assessed as inhibition of carrageenan-induced paw edema at 12 mg/kg, po administered at 1 hr prior to carrageenan-challenge measured after 2 hr relative to control; format: functional
Rattus norvegicus [23] = experiment: Anti-inflammatory activity in Rattus norvegicus (rat) assessed as inhibition of carrageenan-induced paw edema at 12 mg/kg, po administered at 1 hr prior to carrageenan-challenge measured after 3 hr relative to control; format: functional
Rattus norvegicus [24] = experiment: Anti-inflammatory activity in Rattus norvegicus (rat) assessed as inhibition of carrageenan-induced paw edema at 12 mg/kg, po administered at 1 hr prior to carrageenan-challenge measured after 4 hr relative to control; format: functional
Mus musculus [25] = experiment: Analgesic activity in Mus musculus (mouse) assessed as inhibition of acetic acid-induced writhing at 12 mg/kg, po measured after 25 min relative to control; format: functional
Rattus norvegicus [26] = experiment: Ulcerogenic activity in fasted albino Rattus norvegicus (rat) at 12 mg/kg, po administered QD for 3 days measured on day 4; format: toxicity, organism-based; set-up: dose 12 mg/kg, route oral; details: in vivo, 72 h
Rattus norvegicus [27] = experiment: Anti-inflammatory activity in Rattus norvegicus (rat) assessed as inhibition of carrageenan-induced paw edema at 12 mg/kg, po administered at 1 hr prior to carrageenan-challenge measured after 1 hr relative to control; format: functional
Rattus norvegicus [28] = experiment: Anti-inflammatory activity in Rattus norvegicus (rat) assessed as inhibition of carrageenan-induced paw edema at 20 mg/kg, po administered at 1 hr prior to carrageenan-challenge measured after 1 hr relative to control; format: functional
Rattus norvegicus [29] = experiment: Anti-inflammatory activity in Rattus norvegicus (rat) assessed as inhibition of carrageenan-induced paw edema at 20 mg/kg, po administered at 1 hr prior to carrageenan-challenge measured after 2 hr relative to control; format: functional
Mus musculus [30] = experiment: Analgesic activity in Mus musculus (mouse) assessed as inhibition of acetic acid-induced writhing at 20 mg/kg, po measured after 25 min relative to control; format: functional
Rattus norvegicus [31] = experiment: Anti-inflammatory activity in Rattus norvegicus (rat) assessed as inhibition of carrageenan-induced paw edema at 20 mg/kg, po administered at 1 hr prior to carrageenan-challenge measured after 3 hr relative to control; format: functional
Rattus norvegicus [32] = experiment: Anti-inflammatory activity in Rattus norvegicus (rat) assessed as inhibition of carrageenan-induced paw edema at 20 mg/kg, po administered at 1 hr prior to carrageenan-challenge measured after 4 hr relative to control; format: functional

SMILES: CC(=O)Nc1ccc(OC(=O)c2ccccc2N(CCO[N+](=O)[O-])c2ccccc2)cc1
inhibition in vivo at 14 mg/kg (Rattus norvegicus [1]): 59.6%
inhibition in vivo at 14 mg/kg (Rattus norvegicus [2]): 55.2%
Activity (Rattus norvegicus [3]): Non-toxic
inhibition in vivo at 14 mg/kg (Mus musculus [4]): 15.4%
inhibition in vivo at 14 mg/kg (Rattus norvegicus [5]): 26.7%
Activity [6]: 10.71%
inhibition in vivo at 14 mg/kg (Rattus norvegicus [7]): 65.8%
Activity (Rattus norvegicus [8]): Non-toxic

SMILES: CC(=O)Nc1ccc(OC(=O)c2ccc(N(CCO[N+](=O)[O-])c3ccccc3C(=O)Oc3ccc(NC(C)=O)cc3)cc2)cc1
inhibition in vivo at 10 mg/kg (Rattus norvegicus [16]): 12.1%
inhibition in vivo at 10 mg/kg (Mus musculus [17]): 11.2%
inhibition in vivo at 10 mg/kg (Rattus norvegicus [18]): 18.7%
Activity [6]: 2.46%
inhibition in vivo at 10 mg/kg (Rattus norvegicus [19]): 11.7%
Activity (Rattus norvegicus [20]): Non-toxic
inhibition in vivo at 10 mg/kg (Rattus norvegicus [21]): 13.7%

SMILES: O=C(O)Cc1ccccc1Nc1c(Cl)cccc1Cl [DICLOFENAC SODIUM]
inhibition in vivo at 20 mg/kg (Rattus norvegicus [28]): 45%
inhibition in vivo at 20 mg/kg (Rattus norvegicus [29]): 42.1%
inhibition in vivo at 20 mg/kg (Mus musculus [30]): 8.2%
inhibition in vivo at 20 mg/kg (Rattus norvegicus [31]): 73.3%
inhibition in vivo at 20 mg/kg (Rattus norvegicus [32]): 73.4%

Now from value to compound, other results behind:

Activity [6]: 6.98%
SMILES: CC(=O)Nc1ccc(OC(=O)c2ccccc2N(CCO[N+](=O)[O-])c2ccc([N+](=O)[O-])cc2)cc1
inhibition in vivo at 13 mg/kg (Mus musculus [9]): 13.8%
Activity (Rattus norvegicus [10]): Non-toxic
inhibition in vivo at 13 mg/kg (Rattus norvegicus [11]): 6.67%
inhibition in vivo at 13 mg/kg (Rattus norvegicus [12]): 32.1%
inhibition in vivo at 13 mg/kg (Rattus norvegicus [13]): 11.9%
inhibition in vivo at 13 mg/kg (Rattus norvegicus [14]): 23.3%
Activity (Rattus norvegicus [15]): Non-toxic

Activity [6]: 7.31%
SMILES: CC(=O)Nc1ccc(OC(=O)c2ccccc2N(CCO[N+](=O)[O-])c2ccc(C)cc2)cc1
inhibition in vivo at 14 mg/kg (Rattus norvegicus [1]): 36.8%
inhibition in vivo at 14 mg/kg (Rattus norvegicus [2]): 18%
Activity (Rattus norvegicus [3]): Non-toxic
inhibition in vivo at 14 mg/kg (Mus musculus [4]): 21.8%
inhibition in vivo at 14 mg/kg (Rattus norvegicus [5]): 30%
inhibition in vivo at 14 mg/kg (Rattus norvegicus [7]): 24.4%
Activity (Rattus norvegicus [8]): Non-toxic

Activity [6]: 5.88%
SMILES: CC(=O)Nc1ccc(OC(=O)c2ccccc2N(CCO[N+](=O)[O-])c2ccc(S(N)(=O)=O)cc2)cc1
inhibition in vivo at 12 mg/kg (Rattus norvegicus [22]): 11.5%
inhibition in vivo at 12 mg/kg (Rattus norvegicus [23]): 8.46%
inhibition in vivo at 12 mg/kg (Rattus norvegicus [24]): 9.41%
inhibition in vivo at 12 mg/kg (Mus musculus [25]): 26.2%
Activity (Rattus norvegicus [26]): Non-toxic
inhibition in vivo at 12 mg/kg (Rattus norvegicus [27]): 8.33%
